In patent publication US20260132158A1, “PHENYL OXY AMIDE KINASE INHIBITORS” (THE TRANSLATIONAL GENOMICS RESEARCH INSTITUTE, priority 2022, published 2026):

These molecules were tested against T1, RON Kinase (Homo sapiens, UniProt Q04912) (assay: RON Kinase ADP Glo Assay). Conditions: ratio cMET IC50 / RON IC50.
T1 construct: purchased Promega V8071
T1 sequence (Q04912 25-1400): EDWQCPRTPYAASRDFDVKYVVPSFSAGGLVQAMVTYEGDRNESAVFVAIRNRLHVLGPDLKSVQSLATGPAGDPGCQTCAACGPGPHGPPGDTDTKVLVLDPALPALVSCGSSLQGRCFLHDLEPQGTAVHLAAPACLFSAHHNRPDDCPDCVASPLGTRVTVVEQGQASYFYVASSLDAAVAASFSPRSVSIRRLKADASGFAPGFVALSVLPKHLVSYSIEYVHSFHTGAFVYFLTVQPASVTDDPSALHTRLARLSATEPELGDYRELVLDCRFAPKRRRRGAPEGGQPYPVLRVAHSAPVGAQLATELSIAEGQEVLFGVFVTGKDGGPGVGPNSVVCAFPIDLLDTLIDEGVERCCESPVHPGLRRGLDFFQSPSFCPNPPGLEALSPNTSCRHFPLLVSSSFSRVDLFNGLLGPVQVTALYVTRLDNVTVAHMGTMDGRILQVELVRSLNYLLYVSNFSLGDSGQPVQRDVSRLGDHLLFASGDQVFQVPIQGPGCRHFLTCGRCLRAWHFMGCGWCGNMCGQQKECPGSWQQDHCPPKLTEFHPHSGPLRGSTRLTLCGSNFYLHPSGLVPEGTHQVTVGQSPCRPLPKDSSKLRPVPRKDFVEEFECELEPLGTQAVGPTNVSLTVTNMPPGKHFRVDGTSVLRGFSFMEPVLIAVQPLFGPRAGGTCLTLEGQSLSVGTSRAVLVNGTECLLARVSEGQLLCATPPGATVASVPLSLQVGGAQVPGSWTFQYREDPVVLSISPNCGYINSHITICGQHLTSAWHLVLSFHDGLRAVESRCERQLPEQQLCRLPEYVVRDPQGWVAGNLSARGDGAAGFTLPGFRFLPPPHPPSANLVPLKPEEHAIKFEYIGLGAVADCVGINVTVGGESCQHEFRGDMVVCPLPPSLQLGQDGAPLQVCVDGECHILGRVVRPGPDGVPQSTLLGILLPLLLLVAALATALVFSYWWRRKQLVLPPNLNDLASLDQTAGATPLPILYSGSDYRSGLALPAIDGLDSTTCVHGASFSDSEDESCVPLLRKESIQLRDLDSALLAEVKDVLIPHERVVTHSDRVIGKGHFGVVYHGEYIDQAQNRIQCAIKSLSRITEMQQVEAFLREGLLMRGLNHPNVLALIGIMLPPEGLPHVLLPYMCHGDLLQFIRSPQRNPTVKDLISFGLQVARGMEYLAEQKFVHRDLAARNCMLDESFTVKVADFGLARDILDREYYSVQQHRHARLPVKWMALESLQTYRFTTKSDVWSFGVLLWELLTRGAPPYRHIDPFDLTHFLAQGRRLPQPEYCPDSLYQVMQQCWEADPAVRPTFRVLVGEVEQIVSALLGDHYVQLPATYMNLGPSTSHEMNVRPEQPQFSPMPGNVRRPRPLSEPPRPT
Type: biochemical
Description: RON Kinase ADP Glo Assay • Assay Buffer: 40 mM Tris-HCl, pH7.5, 20 mM MgCl2, 0.1 mg/mL BSA • RON Kinase+ADP-Glo™ Assay (Promega #: V8071) • Substrate: […] Axltide • Enzyme: 100 ng/μL RON Kinase • ATP: 10 mM • ADP-Glo™ Reagent • Kinase Detection Reagent • 384-well white assay plates Kinase assay was done by following instructions from the kit. Briefly, a ten-point serial dilution of compound was prepared at 5× in assay buffer with the final assay concentrations starting at 300 nM, 100 nM, 30 nM, 10 nM . . . 0 nM. Enzyme, substrate, and ATP were used at 25 ng, 2000 ng, and 25 µM, respectively. The assay plate was set up by mixing the components in a total reaction volume of 10 μL per well. The plate was centrifuged gently for 10 seconds and incubated at room temperature (RT) for 60 minutes in the dark. The ADP-Glo Reagent and kinase detection reagent were added and incubated as recommended. The reaction was quantified by measuring luminescence on the Perkin Elmer Envision plate reader.
With `CCCN1CCN(CCc2cccc(Nc3nccc(Oc4ccc(NC(=O)c5cnn(-c6ccc(F)cc6)c5C(F)(F)F)cc4F)n3)c2)CC1` [Compound 47, N-(3-Fluoro-4-((2-((3-(2-(4-Propylpiperazin-1-Yl)Ethyl)Phenyl)Amino)Pyrimidin-4-Yl)Oxy)Phenyl)-1-(4-Fluorophenyl)-5-(Trifluoromethyl)-1H-Pyrazole-4-Carboxamide] the “Fold Selectivity (cMET/RON)” value was “+++ (represents a value greater than 3 up to 50)”. `CC(C)N1CCN(CCc2cccc(Nc3nccc(Oc4ccc(NC(=O)c5cnn(-c6ccc(F)cc6)c5C(F)(F)F)cc4F)n3)c2)CC1` [Compound 48, N-[3-fluoro-4-(2-{m-[2-(4-isopropyl-1-piperazinyl)ethyl]phenylamino}-4-pyrimidinyloxy)phenyl]-1-(p-fluorophenyl)-5-(trifluoromethyl)-4-pyrazolecarboxamide] was tested, and the “Fold Selectivity (cMET/RON)” value was “++ (represents a value greater than 0.5 up to 3)”. In the case of `O=C(Nc1ccc(Oc2ccnc(Nc3cccc(CCN4CCN(C5CC5)CC4)c3)n2)c(F)c1)c1cnn(-c2ccc(F)cc2)c1C(F)(F)F` [Compound 49, N-(4-((2-((3-(2-(4-cyclopropylpiperazin-1-yl)ethyl)phenyl)amino)pyrimidin-4-yl)oxy)-3-fluorophenyl)-1-(4-fluorophenyl)-5-(trifluoromethyl)-1H-pyrazole-4-carboxamide], the “Fold Selectivity (cMET/RON)” value is reported as “++ (represents a value greater than 0.5 up to 3)”. With `C=CC(=O)N1CCN(C(=O)Cc2cccc(Nc3nccc(Oc4ccc(NC(=O)c5cnn(-c6ccc(F)cc6)c5C(F)(F)F)cc4F)n3)c2)CC1` [Compound 50, N-[4-(2-{m-[2-(4-acryloyl-1-piperazinyl)-2-oxoethyl]phenylamino}-4-pyrimidinyloxy)-3-fluorophenyl]-1-(p-fluorophenyl)-5-(trifluoromethyl)-4-pyrazolecarboxamide] the “Fold Selectivity (cMET/RON)” value was “+++ (represents a value greater than 3 up to 50)”. With `CP(C)(=O)c1cncnc1Oc1ccc(NC(=O)c2cnn(-c3ccc(F)cc3)c2C(F)(F)F)cc1F` [Compound 54, N-{4-[5-(dimethylphosphoryl)-4-pyrimidinyloxy]-3-fluorophenyl}-1-(p-fluorophenyl)-5-(trifluoromethyl)-4-pyrazolecarboxamide] the “Fold Selectivity (cMET/RON)” value was “+++ (represents a value greater than 3 up to 50)”. For `CCOc1ccn(-c2ccc(F)cc2)c(=O)c1C(=O)Nc1ccc(Oc2ccnc(N)c2P(C)(C)=O)c(F)c1` [Compound 58, N-{4-[2-amino-3-(dimethylphosphoryl)-4-pyridyloxy]-3-fluorophenyl}-4-ethoxy-1-(4-fluorophenyl)-2-oxo-1,2-dihydronicotinamide], the “Fold Selectivity (cMET/RON)” value was “+ (represents a value below 0.5)”.
